Assay results taken from US7115574B2, “System and method for support legacy operating system booting in a legacy-free system” (priority 2001, dated 2006).

Columns and labels:
C. albicans = assay: cAMP content of C. albicans (EIA); type: cell-based; conditions: 10^−6 M; for cAMP content in the yeast: 3 minutes, permeabilized C. albicans
Protocol: C. albicans (10^6/ml), permeabilized with toluene/ethanol, were incubated at 37° C. with continuous shaking in the presence of 10^−6 M α-MSH(1-13) (SEQ ID NO: 3), (11-13), (SEQ ID NO: 1), forskolin, an agent known to increase intracellular cAMP, or in medium alone. The reaction was stopped after 3 minutes by the addition of ice cold ethanol, cAMP was measured in duplicate using a commercial enzyme immunoassay (EIA) kit (Amersham, United Kingdom) after extraction via the liquid-phase method according to manufacturer's instructions. The effect of forskolin (10^−6 M) on C. albicans colony formation was determined using the same procedure as for α-MSH peptides.

[1] = tested on: inflammation induced in the ear by picryl chloride application; assay: Picryl chloride-induced ear swelling; type: in vivo, BALB/C mice; conditions: for % Inhibition 3 h: 3 h after picryl chloride; for % Inhibition 6 h: 6 h after picryl chloride
Protocol: Hiltz, M. E., Catania, A., Lipton, J. M., Anti-Inflammatory Activity of aα-MSH (11-13) Analogs: Influence of Alteration in Stereochemistry, 12 Peptides 767 (1981). […] Female BALB/C mice (Simonsen Laboratories), 7 weeks old, were housed at 23-25° C. in groups of no more than 5 per cage [28 cm (L)×18 cm (W)×13 cm (H)]. They were allowed to acclimatize to standard lighting and temperature conditions for at least 1 week, with food and water available ad lib, before the experiment began. Five to ten animals were randomly assigned to each treatment group each test day, and all experiments were repeated at least twice to confirm reproducibility. To reduce error due to slight differences in responses to the irritant of animals from different shipments, tests of each agent were performed as separate experiments in which experimental and control animals were drawn from the same shipment.
In the experiments each animal was anesthetized with 1 mg of pentobarbital sodium solution ([…], Nembutal, Abbott Laboratories, Abbott park, Ill.). Baseline ear thickness was measured for both ears with a spring-loaded micrometer (Swiss Precision Instruments, Los Angeles, Calif.). Ear thickness was expressed in units of 10^−3 cm; the average thickness of unstimulated ears was approximately 25-30×10^−3 cm. After baseline measurements were taken, one of six solutions was injected IP. […] The doses of the tripeptides were 10 μg (2.6×.10^−8 M), 20 μg (5.2×.10^−8 M), 40 μg (1.04×.10^−7 M), and 80 μg (2.08×.10^−7 M). Immediately after saline or α-MSH injection, a micropipette was used to coat both sides of each ear with 10 μl […] of a 0.5% picryl chloride (Polysciences, Warrington, Pa.) solution in acetone.
Ear thickness was remeasured 3 and 6 h after picryl chloride application. Swelling was determined by subtracting baseline thickness from the measurements for each ear at 3 and 6 h. The differences for both ears were then averaged for the final analysis.
Repeated-measure ANOVA techniques were used to determine if there was an overall difference among group data for each peptide tested in separate experiments. In those cases in which the ANOVA yielded significant results, Dunnett's test was then used to compare the effects of peptide doses with control (saline) data for each of the two time periods, 3 and 6 h.

[2] = tested on: N9 clone of murine microglial cells; assay: cAMP accumulation in N9 microglia; type: cell-based; conditions: for cAMP accumulation: resting cells and cells co-incubated with LPS+IFN-γ; for concentration of strongest effect on cAMP accumulation: resting microglia, 1, 10, 50 μM tested
Protocol: cAMP accumulation in N9 cells was measured as previously described. […] Reactions were stopped after 3 min by aspirating supernatants, immediately adding 1 mL ethanol at −20° C. and freezing. cAMP content in the ethanol-soluble fraction was measured using an enzyme immunoassay kit (Amersham).

[3] = tested on: N9 clone of murine microglial cells; assay: Northern blot of TNF-α and iNOS mRNA in activated microglia; type: cell-based; conditions: peptide prior to LPS and IFN-γ
Protocol: Total cellular RNA was extracted from 10^6 adherent microglial cells plated in six-well tissue culture plates (Corning). Electrophoresis of RNA samples (10 μg/lane) was performed in 1% agarose/2.2 M formaldehyde gels and the gels subsequently blotted onto nylon filters by capillary action and baked for 2 h before prehybridization. The cDNA fragments encoding murine TNF-α and mouse macrophage iNOS were ^32P-labeled using the Ready-To-Go DNA Labeling Kit (Pharmacia, Uppsala, Sweden) before hybridization of nylon filters and autoradiography. Blots were subsequently rehybridized with human glyceraldehyde-3-phosphate dehydrogenase (G-3-PDH) cDNA probe as an internal control (Clontech Laboratories, Inc., Palo Alto, Calif.).

[4] = tested on: inflammation induced in the hind paw by kappa carrageenan; assay: Kappa carrageenan hind paw inflammation in spinal cord intact and transected mice; type: in vivo, BALB/c mice; conditions: for effect on carrageenan-induced paw swelling: spinal cord transected mice; for inhibition of inflammation induced in the hind paw: central administration, spinal cord intact mice
Protocol: Because surgical dissection of trigeminal structures that innervate the ear of the mouse is very difficult, tests to learn whether descending neural pathways are essential to the anti-inflammatory activity of centrally administered α-MSH peptides were performed in mice with inflammation induced in a hind paw. In these experiments, each animal was anesthetized with pentobarbital sodium solution as above. Baseline foot pad thickness of both hind paws was measured with a spring-loaded micrometer (Swiss Precision Instruments, Los Angeles, Calif.). Paw thickness was expressed in units of 10^−3 cm; average thickness of unstimulated paws was 171.5×10^−3 cm across shipments of animals. Kappa carrageenan (Sigma) dissolved in saline (0.05%, 20 μl) was injected (28 gauge allergy test syringe) into one footpad, and saline (20 μl) was injected into the other. For the analyses, the increase in thickness of the control saline-injected paw of each animal was subtracted from that of the carrageenan-injected paw, to eliminate the influence of mechanical injury and volume of the injected fluid. […] Treatment with the locally acting steroid reduced swelling up to 29% (average, relative to saline controls) at 4.5 hr. after carrageenan.
However, a standardized crushing of lumbar vertebrae with a hemostat (Kelly) was effective in severing the cord; no deaths were caused by this treatment. […] The experiments were limited to 4.5 hr to reduce problems of bowel and bladder dysfunction. Immediately after the 4.5 hr measurements all mice were killed with an overdose of sodium pentobarbital.
Because of the size of the experiments and the requirement for several shipments of animals over time, several experiments were performed, each with complete treatment and control groups drawn from the same shipment of mice. Omnibus analysis of variance techniques (Dynastat, Washington, D.C.) were used to test overall differences among group means. Tukey's protected t test was used to compare individual means. Probability values of <0.05 were considered significant.

Substance	increase in cAMP relative to equimolar forskolin (C. albicans)	cAMP content in the yeast (C. albicans)	% Inhibition 3 h ([1]; 10 μg IP)	% Inhibition 6 h ([1]; 10 μg IP)	% Inhibition 3 h ([1]; 20 μg IP)	% Inhibition 6 h ([1]; 20 μg IP)	% Inhibition 3 h ([1]; 40 μg IP)	% Inhibition 6 h ([1]; 40 μg IP)	% Inhibition 3 h ([1]; 80 μg IP)	% Inhibition 6 h ([1]; 80 μg IP)	overall effect on inflammation (ANOVA) ([1]; 10-80 μg IP, 3 and 6 h)	cAMP accumulation [2]	concentration of strongest effect on cAMP accumulation [2]	transcription levels (mRNA) for TNF-α and iNOS [3]	effect on carrageenan-induced paw swelling ([4]; given intraperitoneally)	effect on carrageenan-induced paw swelling ([4]; given intraperitoneally, listed as tripeptide)	cAMP accumulation in conjunction with LPS and IFN-γ ([2]; peptide 10 μM with LPS+IFN-γ, forskolin 100 μM as comparison)	inhibition of inflammation induced in the hind paw ([4]; 3 hr)	inhibition of inflammation induced in the hind paw ([4]; 4.5 hr)	effect on carrageenan-induced paw swelling ([4]; centrally injected)
Ac-Lys-Pro-Val-NH2 [α-MSH(11-13)]	same order of magnitude	enhanced cAMP content	26%	25%	21%	19%	33%	26%	50%	42%	inhibited acute inflammation	increased cAMP accumulation	50 µM	decrease in transcription levels	even more effective at reducing swelling	marked inhibitory effect on inflammation	–	–	–	–
SYSMEHFRWGKPV [α-MSH(1-13)]	–	enhanced cAMP content	–	–	–	–	–	–	–	–	–	increased cAMP accumulation	10 µM	decrease in transcription levels	significant, although smaller, inhibitory effect	–	more effective of the two	57%	29%	had no effect on paw swelling
